In ChEMBL document CHEMBL1811792, “Ligand-based modelling followed by synthetic exploration unveil novel glycogen phosphorylase inhibitory leads” (Bioorg Med Chem, 2011):

Experiments:
[1] = biological target: T1, Glycogen phosphorylase, muscle form (Oryctolagus cuniculus) (UniProt P00489); test: Inhibition of rabbit muscle glycogen phosphorylase […] assessed as release of phosphate from glucose-1- phosphate at 10 uM after 20 mins
T1 sequence (whole entry): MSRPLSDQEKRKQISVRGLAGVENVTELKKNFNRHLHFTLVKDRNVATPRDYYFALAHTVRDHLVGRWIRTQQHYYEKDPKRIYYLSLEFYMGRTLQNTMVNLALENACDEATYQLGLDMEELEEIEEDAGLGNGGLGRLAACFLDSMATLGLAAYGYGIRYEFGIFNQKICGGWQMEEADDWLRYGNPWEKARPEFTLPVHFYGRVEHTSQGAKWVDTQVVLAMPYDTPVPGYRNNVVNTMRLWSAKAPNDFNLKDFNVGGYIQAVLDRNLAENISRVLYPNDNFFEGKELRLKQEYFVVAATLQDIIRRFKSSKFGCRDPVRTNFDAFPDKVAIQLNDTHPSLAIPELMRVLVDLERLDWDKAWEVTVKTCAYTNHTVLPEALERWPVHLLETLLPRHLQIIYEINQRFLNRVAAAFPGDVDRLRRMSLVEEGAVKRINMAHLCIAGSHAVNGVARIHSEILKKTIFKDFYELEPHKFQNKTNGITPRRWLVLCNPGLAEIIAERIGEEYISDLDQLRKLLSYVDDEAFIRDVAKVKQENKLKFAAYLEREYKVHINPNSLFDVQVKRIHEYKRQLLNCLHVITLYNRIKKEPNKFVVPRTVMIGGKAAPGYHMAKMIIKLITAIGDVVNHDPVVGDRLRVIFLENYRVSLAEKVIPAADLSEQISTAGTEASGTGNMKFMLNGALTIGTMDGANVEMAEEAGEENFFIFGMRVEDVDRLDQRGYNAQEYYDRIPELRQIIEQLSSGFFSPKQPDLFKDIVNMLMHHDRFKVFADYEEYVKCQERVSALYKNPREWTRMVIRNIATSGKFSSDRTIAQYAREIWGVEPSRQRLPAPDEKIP

[2] = biological target: T2, Glycogen phosphorylase, muscle form (Oryctolagus cuniculus, UniProt P00489); test: Inhibition of rabbit muscle glycogen phosphorylase […] assessed as release of phosphate from glucose-1- phosphate after 20 mins
T2 sequence (P00489 whole entry): T1 sequence (whole entry)

Row | inhibition [1] | IC50 [2] | SMILES
1 | 53% | 5.9 µM | Cc1cc(S(=O)(=O)Nc2nnc3c(C(F)(F)F)cc(Cl)cn23)c(S)cc1Cl
2 | 55% | 5.4 µM | Cc1ccccc1NC(=O)C(=O)Nc1ccccc1C
3 | 45% | 6.9 µM | Cc1cc(S(=O)(=O)Nc2nc3ccccc3[nH]2)c(S)cc1Cl
4 | 2% |  | Cc1ccccc1NC(=O)CC(=O)Nc1ccccc1C
5 | 24% |  | COc1ccc2cc(-c3ccc(OC)c(OC)c3)c(=O)oc2c1
6 | 42% | 7.5 µM | Cc1cc(S(=O)(=O)Nc2nnc3c4ccccc4ccn23)c(S)cc1Cl
7 | 25% |  | CN(C)c1ccc(/C=C/C(=O)c2cc(Cl)ccc2O)cc1

More lines, now with the values behind:

Row | SMILES | inhibition [1] | IC50 [2]
8 | COc1ccccc1NC(=O)C(=O)Nc1ccccn1 | 5% | 
9 | NC(=O)c1ccccc1NC(=O)COc1ccc(Cl)cc1 | 38% | 
10 | O=C1Oc2ccccc2N/C1=C/C(=O)c1ccc(Cl)cc1 | 26% | 
11 | O=C(CC(=O)NCc1ccccc1)NCc1ccccc1 | 1% | 
12 | COC(=O)c1ccccc1NC(=O)Nc1cccc(OC)c1 | 12% | 
13 | Cc1cccc(NC(=O)CC(=O)Nc2cccc(C)c2)c1 | 4% | 
14 | CSc1cccc(NC(=O)Nc2ccccc2C(N)=O)c1 | 36% | 
15 | CSc1ccc(NC(=O)Nc2ccccc2C(N)=O)cc1 | 17% | 
16 | CSc1ccc(NC(=O)C2CCCCC2C(=O)O)cc1 (stereo unspecified) | 17% | 
17 | Cc1ccc(S(=O)(=O)CC2CCc3ccccc3C2=O)cc1 (stereo unspecified) | 49% | 16.5 µM
18 | CCOC(=O)C(=O)CC(=O)c1ccc(OC)cc1 | 34% | 
19 | COC(=O)c1ccccc1NC(=O)Nc1ccc(SC)cc1 | 7% | 
20 | C/C=C/c1cc(OC)c2c(c1)[C@H](C)[C@@H](c1ccc(O)c(OC)c1)O2 | 8% | 
21 | CCOc1ccc(NC(=O)c2cc3ccccc3cc2O)cc1 | 22% | 
